Results taken from US9079907B2, “Fused heterocyclic compound and use thereof” (TAKEDA PHARMACEUTICAL COMPANY LIMITED, priority 2006, dated 2015).
Structures can show the parent of a compound that is named as a salt.

What follows are compounds tested on female spinal cord-transected rats with bilaterally transected hypogastric nerve and pudendal nerve (assay: Reflex urethral closure response induced by increased intravesical pressure, with hypogastric and pudendal nerves bilaterally transected). Conditions: 1 mg/kg i.v.; 10 min after administration; intravesical pressure raised to 50 cmH2O; mean ± SEM, n = 5.
Description: Female SD rats (body weight 200-310 g) were anesthetized with urethane (Wako Pure Chemical Industries, Ltd.), and the spinal cord was transected at T8-9 level to eliminate the micturition reflex. During the operation, halothane (Takeda Pharmaceutical Company Limited) anesthesia was added when necessary. After abdominal section, bladder neck was ligated with a suture thread, and then the hypogastric nerve and pudendal nerve were bilaterally transected. A catheter (PE-90, Clay Adams) was placed in the bladder, and the other end of the bladder catheter was connected to a pressure transducer and a water reservoir (60 ml syringe) of saline via a three-way cock. A microchip transducer catheter (SPR-524, Millar Instruments Inc.) was inserted toward the bladder from the urethral opening, and adjusted using a scale on the catheter surface so that the transducer part is positioned in the urinary tract at 10.0-15.0 mm from the urethral opening.
The changes in the topical pressure within the urinary tract (hereinafter conveniently indicated as urethral internal pressure) as measured by the microchip transducer was transmitted to a computer via an amplifier (blood pressure amplification unit AP-641G; NIHON KOHDEN) and an analog-to-digital converter (MP-100; biopack; sampled at 500 Hz), and recorded on a hard disc. […] The reaction of the urinary tract induced by an increased intravesical pressure was measured 3 times, and the average of the last 2 measures was taken as the value before drug administration. The evaluation item was reflex urethral closure response, and the recorded values were subjected to smoothing process at 500 points to calculate an average urethral internal pressure per 1 sec, after which the value immediately before increase of the intravesical pressure was subtracted from the maximum value on increase of the intravesical pressure and taken as the urethral closure response. […] The drugs were all dissolved in N,N-dimethylformamide/polyethylene glycol 400 (1:1) and administered intravenously at a dose of 0.5 ml/kg.

| SMILES | urethral closure response (cmH2O) after drug administration |
| --- | --- |
| C[C@H]1CNCCc2ccc(Cl)cc21.Cl [APD-356] | 8.6 ± 2.7 cmH2O |
| c1cc2c(nc1N1CCOCC1)OCCNC2 [Example 41, 8-morpholin-4-yl-2,3,4,5-tetrahydropyrido[3,2-f][1,4]oxazepine] | 7.5 ± 1.6 cmH2O |

Same assay, conditions: 3 mg/kg i.v.; 10 min after administration; intravesical pressure raised to 50 cmH2O; mean ± SEM, n = 5

| SMILES | urethral closure response (cmH2O) after drug administration |
| --- | --- |
| c1cc2c3c(c1)[C@H]1CCC[C@H]1N3CCNC2 [WAY-163909] | 10.2 ± 1.6 cmH2O |

Same assay, conditions: baseline of the 1 mg/kg i.v. group; intravesical pressure raised to 50 cmH2O; mean ± SEM, n = 5

| SMILES | urethral closure response (cmH2O) before drug administration |
| --- | --- |
| C[C@H]1CNCCc2ccc(Cl)cc21.Cl [APD-356] | 5.3 ± 1.7 cmH2O |
| c1cc2c(nc1N1CCOCC1)OCCNC2 [Example 41, 8-morpholin-4-yl-2,3,4,5-tetrahydropyrido[3,2-f][1,4]oxazepine] | 4.6 ± 0.8 cmH2O |

Same assay, conditions: baseline of the 3 mg/kg i.v. group; intravesical pressure raised to 50 cmH2O; mean ± SEM, n = 5

| SMILES | urethral closure response (cmH2O) before drug administration |
| --- | --- |
| c1cc2c3c(c1)[C@H]1CCC[C@H]1N3CCNC2 [WAY-163909] | 4.4 ± 0.8 cmH2O |

Same assay, conditions: i.v.; female spinal cord-transected rats with hypogastric and pudendal nerves bilaterally transected

| SMILES | action on the urethral closure response induced by the increased intravesical pressure (in words) |
| --- | --- |
| c1cc2c3c(c1)[C@H]1CCC[C@H]1N3CCNC2 [WAY-163909] | enhanced the urethral closure response |
| C[C@H]1CNCCc2ccc(Cl)cc21.Cl [APD-356] | enhanced the urethral closure response |
| c1cc2c(nc1N1CCOCC1)OCCNC2 [Example 41, 8-morpholin-4-yl-2,3,4,5-tetrahydropyrido[3,2-f][1,4]oxazepine] | enhanced the urethral closure response |

These compounds were tested against serotonin 5-HT2C receptor (isoform type VSV, stably expressing CHO cell) (Homo sapiens, UniProt P28335, I156V/I160V/N158S) (assay: cell-based). Conditions: 1 μM.
Sequence of serotonin 5-HT2C receptor (isoform type VSV, stably expressing CHO cell) (P28335 33-458 I156V/N158S/I160V limits assumed): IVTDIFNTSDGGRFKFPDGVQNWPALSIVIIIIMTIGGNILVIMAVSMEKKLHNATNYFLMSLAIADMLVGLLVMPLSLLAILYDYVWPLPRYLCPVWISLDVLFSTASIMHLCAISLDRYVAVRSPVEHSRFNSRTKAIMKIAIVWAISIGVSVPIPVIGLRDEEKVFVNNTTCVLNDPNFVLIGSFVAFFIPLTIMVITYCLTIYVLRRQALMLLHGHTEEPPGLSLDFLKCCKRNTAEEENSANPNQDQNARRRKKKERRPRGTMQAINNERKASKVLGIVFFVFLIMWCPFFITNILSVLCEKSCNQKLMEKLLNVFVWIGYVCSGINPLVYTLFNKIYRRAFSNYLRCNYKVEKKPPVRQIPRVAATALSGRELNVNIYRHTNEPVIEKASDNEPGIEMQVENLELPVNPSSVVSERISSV

| SMILES | ratio to maximum response by 5-HT (1 μM) |
| --- | --- |
| Br.CC1CCC(C)N1c1ccc2c(n1)OCCNC2 (centres unmarked) [Example 156, 8-(2,5-dimethylpyrrolidin-1-yl)-2,3,4,5-tetrahydropyrido[3,2-f][1,4]oxazepine monohydrobromide] | 93.4% |
| c1cc2c(nc1N1CCOCC1)OCCNC2 [Example 41, 8-morpholin-4-yl-2,3,4,5-tetrahydropyrido[3,2-f][1,4]oxazepine] | 83.0% |
| c1cc2c(nc1C1CCCC1)OCCNC2 [Example 213, 8-cyclopentyl-2,3,4,5-tetrahydropyrido[3,2-f][1,4]oxazepine] | 96.6% |

Same assay, conditions: 1 μM; dihydrochloride

| SMILES | ratio to maximum response by 5-HT (1 μM) |
| --- | --- |
| CCC(C)N(C)c1ccc2c(n1)OCCNC2 (centres unmarked) [Example 173, N-(sec-butyl)-N-methyl-2,3,4,5-tetrahydropyrido[3,2-f][1,4]oxazepin-8-amine dihydrochloride] | 95.1% |

Same assay, conditions: 1 μM; monohydrobromide

| SMILES | ratio to maximum response by 5-HT (1 μM) |
| --- | --- |
| CC(C)N(C)c1ccc2c(n1)OCCNC2 [Example 178, N-isopropyl-N-methyl-2,3,4,5-tetrahydropyrido[3,2-f][1,4]oxazepin-8-amine monohydrobromide] | 94.6% |
| c1cc2c(nc1N1CCOCC1)OCCNC2 [Example 148, 8-morpholin-4-yl-2,3,4,5-tetrahydropyrido[3,2-f][1,4]oxazepine monohydrobromide] | 93.5% |

Same assay, conditions: 1 μM; monohydrochloride

| SMILES | ratio to maximum response by 5-HT (1 μM) |
| --- | --- |
| CCC(C)N(C)c1ccc2c(n1)OCCNC2 (centres unmarked) [Example 172, N-(sec-butyl)-N-methyl-2,3,4,5-tetrahydropyrido[3,2-f][1,4]oxazepin-8-amine monohydrochloride] | 95.3% |

Same assay, conditions: CHO, read-out: ratio to maximum response by 5-HT; read-out: ratio to maximum response by 5-HT (1 μM)

| SMILES | Emax |
| --- | --- |
| c1cc2c(nc1N1CCCC1)OCCNC2 [Example 43, 8-pyrrolidin-1-yl-2,3,4,5-tetrahydropyrido[3,2-f][1,4]oxazepine bis(trifluoroacetate)] | 97% |
| CC(C)(C)OC(=O)N1CCN(c2ccc3c(n2)OCCNC3)CC1 [Example 30, tert-butyl 4-(2,3,4,5-tetrahydropyrido[3,2-f][1,4]oxazepin-8-yl)piperazine-1-carboxylate] | 99.4% |
| CCN(CC)c1ccc2c(n1)OCCNC2 [Example 44, N,N-diethyl-2,3,4,5-tetrahydropyrido[3,2-f][1,4]oxazepin-8-amine bis(trifluoroacetate)] | 95.1% |
| CC1CNCc2ccc(N3CCCCC3)nc2O1 (centres unmarked) [Example 129, 2-methyl-8-piperidin-1-yl-2,3,4,5-tetrahydropyrido[3,2-f][1,4]oxazepine] | 111% |
| c1ccc(CCN2CCN(c3ccc4c(n3)OCCNC4)CC2)cc1 [Example 58, 8-[4-(2-phenylethyl)piperazin-1-yl]-2,3,4,5-tetrahydropyrido[3,2-f][1,4]oxazepine tris(trifluoroacetate)] | 87.1% |
| C[C@H]1CNCc2ccc(N3CCOCC3)nc2O1 [Example 131, (−)-2-methyl-8-morpholin-4-yl-2,3,4,5-tetrahydropyrido[3,2-f][1,4]oxazepine] | 94.2% |
| c1ccc(CCCCN2CCN(c3ccc4c(n3)OCCNC4)CC2)cc1 [Example 67, 8-[4-(4-phenylbutyl)piperazin-1-yl]-2,3,4,5-tetrahydropyrido[3,2-f][1,4]oxazepine tris(trifluoroacetate)] | 124% |
| C[C@@H]1CNCc2ccc(N3CCOCC3)nc2O1 [Example 130, (+)-2-methyl-8-morpholin-4-yl-2,3,4,5-tetrahydropyrido[3,2-f][1,4]oxazepine] | 105% |
| c1cc2c(nc1C1CCCC1)OCCNC2 [Example 212, 8-cyclopentyl-2,3,4,5-tetrahydropyrido[3,2-f][1,4]oxazepine dihydrochloride] | 91.9% |
| CC(C)N(C)c1ccc2c(n1)OCCNC2 [Example 177, N-isopropyl-N-methyl-2,3,4,5-tetrahydropyrido[3,2-f][1,4]oxazepin-8-amine] | 91.5% |
| c1cc2c(nc1N1CCCCC1)OCCNC2 [Example 40, 8-piperidin-1-yl-2,3,4,5-tetrahydropyrido[3,2-f][1,4]oxazepine] | 80.8% |
| CC1CCC(C)N1c1ccc2c(n1)OCCNC2 (centres unmarked) [Example 155, 8-(2,5-dimethylpyrrolidin-1-yl)-2,3,4,5-tetrahydropyrido[3,2-f][1,4]oxazepine] | 85.4% |
| c1cc2c(nc1N1CCOCC1)OCCNC2 [Example 147, 8-morpholin-4-yl-2,3,4,5-tetrahydropyrido[3,2-f][1,4]oxazepine monohydrochloride] | 93.9% |
| CC1CNCc2ccc(N3CCN(C(=O)OC(C)(C)C)CC3)nc2O1 (centres unmarked) [Example 126, tert-butyl 4-(2-methyl-2,3,4,5-tetrahydropyrido[3,2-f][1,4]oxazepin-8-yl)piperazine-1-carboxylate] | 109% |
| CC(C)c1ccc2c(n1)OCCNC2 [Example 205, 8-isopropyl-2,3,4,5-tetrahydropyrido[3,2-f][1,4]oxazepine dihydrochloride] | 93.5% |
| Fc1ccc(-c2ccc3c(n2)OCCNC3)cc1 [Example 81, 8-(4-fluorophenyl)-2,3,4,5-tetrahydropyrido[3,2-f][1,4]oxazepine bis(trifluoroacetate)] | 92.1% |
| COC(=O)c1ccc(-c2ccc3c(n2)OCCNC3)cc1 [Example 102, methyl 4-(2,3,4,5-tetrahydropyrido[3,2-f][1,4]oxazepin-8-yl)benzoate bis(trifluoroacetate)] | 91.3% |
| CC1CNCc2ccc(N3CCOCC3)nc2O1 (centres unmarked) [Example 128, 2-methyl-8-morpholin-4-yl-2,3,4,5-tetrahydropyrido[3,2-f][1,4]oxazepine] | 107% |
| FC(F)(F)Oc1ccc(-c2ccc3c(n2)OCCNC3)cc1 [Example 104, 8-[4-(trifluoromethoxy)phenyl]-2,3,4,5-tetrahydropyrido[3,2-f][1,4]oxazepine bis(trifluoroacetate)] | 94.6% |
| CSc1ccc(-c2ccc3c(n2)OCCNC3)cc1 [Example 96, 8-[4-(methylthio)phenyl]-2,3,4,5-tetrahydropyrido[3,2-f][1,4]oxazepine bis(trifluoroacetate)] | 90.3% |
| CCC(C)N(C)c1ccc2c(n1)OCCNC2 (centres unmarked) [Example 171, N-(sec-butyl)-N-methyl-2,3,4,5-tetrahydropyrido[3,2-f][1,4]oxazepin-8-amine monohydrobromide] | 99.6% |
| CC1CCCCN1c1ccc2c(n1)OCCNC2 (centres unmarked) [Example 49, 8-(2-methylpiperidin-1-yl)-2,3,4,5-tetrahydropyrido[3,2-f][1,4]oxazepine bis(trifluoroacetate)] | 89.5% |
| c1cc2c(nc1C1CC1)OCCNC2 [Example 210, 8-cyclopropyl-2,3,4,5-tetrahydropyrido[3,2-f][1,4]oxazepine dihydrochloride] | 108% |
| Clc1ccc(-c2ccc3c(n2)OCCNC3)cc1 [Example 79, 8-(4-chlorophenyl)-2,3,4,5-tetrahydropyrido[3,2-f][1,4]oxazepine] | 91.1% |
| CC(C)(C)OC(=O)N1CCN(c2nc3c(cc2F)CNCCO3)CC1 [Example 122, tert-butyl 4-(7-fluoro-2,3,4,5-tetrahydropyrido[3,2-f][1,4]oxazepin-8-yl)piperazine-1-carboxylate] | 110% |
| c1cc(-c2ccc3c(n2)OCCNC3)co1 [Example 112, 8-(3-furyl)-2,3,4,5-tetrahydropyrido[3,2-f][1,4]oxazepine bis(trifluoroacetate)] | 93% |
| c1cc2c(nc1C1CCC1)OCCNC2 [Example 211, 8-cyclobutyl-2,3,4,5-tetrahydropyrido[3,2-f][1,4]oxazepine dihydrochloride] | 98% |
| c1cc2c(nc1N1CCCCCC1)OCCNC2 [Example 46, 8-azepan-1-yl-2,3,4,5-tetrahydropyrido[3,2-f][1,4]oxazepine bis(trifluoroacetate)] | 100% |
